# In ChEMBL document CHEMBL3808392, “Design, synthesis and biological evaluation of 5-fluorouracil-derived benzimidazoles as novel type of potential antimicrobial agents” (2016):
# How the values were obtained:
# [1] = test system: Aspergillus flavus; assay: Antimicrobial activity against Aspergillus flavus ATCC 204304 after 24 hrs by microbroth dilution method; format: functional; conditions: ATCC 204304, 24 h
# [2] = test system: Candida albicans; assay: Antimicrobial activity against Candida albicans ATCC 10231 after 24 hrs by microbroth dilution method; format: functional; conditions: ATCC 10231, 24 h
# [3] = test system: Candida; assay: Antimicrobial activity against Candida mycoderma ATCC 9888 after 24 hrs by microbroth dilution method; format: functional; conditions: ATCC 9888, 24 h
# [4] = test system: Saccharomyces cerevisiae; assay: Antimicrobial activity against Saccharomyces cerevisiae after 24 hrs by microbroth dilution method; format: functional
# [5] = test system: Escherichia coli; assay: Antimicrobial activity against Escherichia coli JM109 after 24 hrs by microbroth dilution method; format: functional; conditions: JM109, 24 h
# [6] = test system: Salmonella typhi; assay: Antimicrobial activity against Bacillus typhi after 24 hrs by microbroth dilution method; format: functional, Salmonella enterica subsp. enterica serovar Typhi; conditions: Salmonella enterica
# [7] = test system: Escherichia coli; assay: Antimicrobial activity against Escherichia coli DH52 after 24 hrs by microbroth dilution method; format: functional; conditions: DH52, 24 h
# [8] = test system: Bacillus spizizenii; assay: Antimicrobial activity against Bacillus subtilis ATCC 6633 after 24 hrs by microbroth dilution method; format: functional; conditions: ATCC 6633, 24 h
# [9] = test system: Staphylococcus aureus; assay: Antimicrobial activity against methicillin-resistant Staphylococcus aureus N315 after 24 hrs by microbroth dilution method; format: functional; conditions: N315, 24 h
# [10] = test system: Staphylococcus aureus; assay: Antimicrobial activity against Staphylococcus aureus ATCC 25923 after 24 hrs by microbroth dilution method; format: functional; conditions: ATCC 25923, 24 h
# [11] = Antimicrobial activity against Bacillus proteus ATCC 13315 after 24 hrs by microbroth dilution method; format: functional; conditions: ATCC 13315, 24 h
# [12] = test system: Micrococcus luteus; assay: Antimicrobial activity against Micrococcus luteus ATCC 4698 after 24 hrs by microbroth dilution method; format: functional; conditions: ATCC 4698, 24 h
SMILES,MIC [1] [µg/mL],MIC [2] [µg/mL],MIC [3] [µg/mL],MIC [4] [µg/mL],MIC [5] [µg/mL],MIC [6] [µg/mL],MIC [7] [µg/mL],MIC [8] [µg/mL],MIC [9] [µg/mL],MIC [10] [µg/mL],MIC [11] [µg/mL],MIC [12] [µg/mL]
OC(Cn1cncn1)(Cn1cncn1)c1ccc(F)cc1F [FLUCONAZOLE],256,1,4,16,–,–,–,–,–,–,–,–
O=c1c(F)cn(Cc2nc3ccccc3n2Cc2ccc(F)cc2)c(=O)n1Cc1ccc(F)cc1,512,> 512,> 512,> 512,> 512,512,> 512,> 512,512,> 512,> 512,> 512
CCCCCCCCCCCCn1c(=O)c(F)cn(Cc2nc3ccccc3n2CCCCCCCCCCCC)c1=O,512,256,32,> 512,256,512,512,512,> 512,> 512,512,512
CCn1cc(C(=O)O)c(=O)c2cc(F)c(N3CCNCC3)cc21 [NORFLOXACIN],–,–,–,–,1,4,1,4,8,2,8,2
CCCn1c(=O)c(F)cn(Cc2nc3ccccc3n2CCC)c1=O,64,64,32,128,16,64,32,64,64,32,128,32
COc1ccc(Cn2c(=O)c(F)cn(Cc3nc4ccccc4n3Cc3ccc(OC)cc3)c2=O)cc1,32,64,512,64,16,64,128,64,32,128,32,64
O=c1c(F)cn(Cc2nc3ccccc3n2Cc2ccccc2Cl)c(=O)n1Cc1ccccc1Cl,512,512,512,> 512,> 512,512,> 512,> 512,> 512,> 512,> 512,> 512
CCCCCCCCn1c(Cn2cc(F)c(=O)[nH]c2=O)nc2ccccc21,32,32,64,32,256,512,64,512,512,512,512,512
O=c1c(F)cn(Cc2nc3ccccc3n2Cc2ccc(Cl)cc2)c(=O)n1Cc1ccc(Cl)cc1,> 512,4,> 512,> 512,> 512,512,> 512,> 512,> 512,> 512,> 512,> 512
CCCCCn1c(=O)c(F)cn(Cc2nc3ccccc3n2CCCCC)c1=O,> 512,> 512,8,8,16,512,512,512,16,16,8,32
O=c1c(F)cn(Cc2nc3ccccc3n2Cc2ccccc2)c(=O)n1Cc1ccccc1,64,128,128,> 512,> 512,128,> 512,64,> 512,> 512,> 512,128
O=c1[nH]c(=O)n(Cc2nc3cc(F)ccc3[nH]2)cc1F,128,2,128,8,128,32,32,128,16,8,16,16
O=c1c(F)cn(Cc2nc3ccccc3n2Cc2ccc([N+](=O)[O-])cc2)c(=O)n1Cc1ccc([N+](=O)[O-])cc1,> 512,> 512,> 512,> 512,> 512,32,> 512,32,> 512,> 512,> 512,> 512
O=c1[nH]c(=O)n(Cc2nc3ccccc3[nH]2)cc1F,128,32,64,64,32,32,64,64,128,128,16,64
O=c1c(F)cn(Cc2nc3ccccc3n2Cc2ccccc2F)c(=O)n1Cc1ccccc1F,> 512,> 512,512,128,128,512,128,128,512,16,512,512
Cc1ccc(Cn2c(=O)c(F)cn(Cc3nc4ccccc4n3Cc3ccc(C)cc3)c2=O)cc1,> 512,> 512,> 512,> 512,> 512,512,128,> 512,> 512,> 512,> 512,> 512
CCCCCCCCn1c(=O)c(F)cn(Cc2nc3ccccc3n2CCCCCCCC)c1=O,512,64,512,> 512,512,512,512,512,> 512,> 512,> 512,512
CCCn1c(Cn2cc(F)c(=O)[nH]c2=O)nc2ccccc21,32,2,16,8,64,64,64,16,16,16,64,16
